Experimental data reported in ChEMBL document CHEMBL1201862, “PubChem BioAssay data set” (2004).
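Dose response: 5 concentrations. Exposure: 48 h. Format: 96-well plates. Endpoint: linear interpolation; highest concentration if not reached. GI50 is the concentration that inhibits growth by half.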 Activity calls are given as the source filed them. No stated cut-off is given here; in the data, active = GI50 up to about 1.1 µM and inactive = higher.

Experiments:
Assay in all cases: inhibition of tumour cell growth, NCI panel, 48 h
[1] = system: OVCAR-5
[2] = system: SW-620
[3] = system: HL-60
[4] = system: NCI-H226
[5] = system: SN12C
[6] = system: SF-268
[7] = system: KM-20L2
[8] = system: TK-10
[9] = system: ACHN
[10] = system: UO-31
[11] = system: EKVX
[12] = system: HCT-15
[13] = system: OVCAR-4
[14] = system: HCT-116
[15] = system: A549
[16] = system: HOP-92
[17] = system: U-251
[18] = system: K562
[19] = system: NCI-H522
[20] = system: SNB-19
[21] = system: UACC-62
[22] = system: SNB-75
[23] = system: HCC 2998
[24] = system: NCI-H23
[25] = system: SK-OV-3
[26] = system: IGROV-1
[27] = system: LOX IMVI
[28] = system: M14
[29] = system: RXF 393
[30] = system: SK-MEL-28
[31] = system: CAKI-1
[32] = system: OVCAR-3
[33] = system: 786-0
[34] = system: Malme-3M
[35] = system: HOP-62
[36] = system: KM12
[37] = system: DMS-114
[38] = system: MOLT-4
[39] = system: SNB-78
[40] = system: SK-MEL-2
[41] = system: SR
[42] = system: SK-MEL-5

CCC1CNC(=O)CC1CC(=O)OC (configuration not stated)
GI50 [1]: > 100 µM (inactive) | GI50 [2]: > 100 µM (inactive) | GI50 [3]: > 100 µM (inactive) | GI50 [4]: > 100 µM (inactive) | GI50 [5]: > 100 µM (inactive) | GI50 [6]: > 100 µM (inactive) | GI50 [7]: > 100 µM (inactive) | GI50 [8]: > 100 µM (inactive) | GI50 [9]: > 100 µM (inactive) | GI50 [10]: > 100 µM (inactive) | GI50 [11]: > 100 µM (inactive) | GI50 [12]: > 100 µM | GI50 [13]: > 100 µM (inactive) | GI50 [14]: > 100 µM (inactive) | GI50 [15]: > 100 µM (inactive) | GI50 [16]: > 100 µM (inactive) | GI50 [17]: > 100 µM (inactive) | GI50 [18]: > 100 µM (inactive) | GI50 [19]: > 100 µM (inactive) | GI50 [20]: > 100 µM (inactive) | GI50 [21]: > 100 µM (inactive) | GI50 [22]: > 100 µM (inactive) | GI50 [23]: > 100 µM (inactive) | GI50 [24]: > 100 µM (inactive) | GI50 [25]: > 100 µM (inactive) | GI50 [26]: > 100 µM (inactive) | GI50 [27]: > 100 µM (inactive) | GI50 [28]: > 100 µM (inactive) | GI50 [29]: > 100 µM (inactive) | GI50 [30]: > 100 µM (inactive) | GI50 [31]: > 100 µM (inactive) | GI50 [32]: > 100 µM (inactive) | GI50 [33]: > 100 µM (inactive) | GI50 [34]: > 100 µM (inactive) | GI50 [35]: > 100 µM (inactive) | GI50 [36]: > 100 µM (inactive) | GI50 [37]: > 100 µM (inactive) | GI50 [38]: > 100 µM (inactive) | GI50 [39]: > 100 µM (inactive) | GI50 [40]: > 100 µM (inactive) | GI50 [41]: > 100 µM (inactive) | GI50 [42]: > 100 µM (inactive)
